Molecular target: T1, TGS1 (Mycobacterium tuberculosis, UniProt P9WKC9)
T1 construct: made in house; host or cells: E. coli (total cell lysate, not purified)
T1 sequence (P9WKC9 1-463): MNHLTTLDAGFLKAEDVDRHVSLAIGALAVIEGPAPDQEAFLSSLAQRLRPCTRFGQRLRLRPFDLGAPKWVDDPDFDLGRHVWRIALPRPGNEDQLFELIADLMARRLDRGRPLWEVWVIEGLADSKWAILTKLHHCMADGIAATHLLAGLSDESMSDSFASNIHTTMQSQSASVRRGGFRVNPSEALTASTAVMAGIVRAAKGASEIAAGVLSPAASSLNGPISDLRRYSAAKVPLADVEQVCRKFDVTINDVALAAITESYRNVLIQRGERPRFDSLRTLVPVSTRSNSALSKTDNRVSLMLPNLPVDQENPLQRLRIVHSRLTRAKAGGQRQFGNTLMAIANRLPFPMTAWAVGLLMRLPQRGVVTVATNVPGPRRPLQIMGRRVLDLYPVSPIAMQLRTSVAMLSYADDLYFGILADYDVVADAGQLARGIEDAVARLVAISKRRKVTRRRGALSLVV
Assay type: biochemical, M. tuberculosis
Conditions: acyl-CoA substrate, pH 6.5, 37° C., 2 h; for Km: from linear double-reciprocal plots

Compound	Vmax [nmol/mg/min]	Km [µM]
CCCCCCCC/C=C\CCCCCCCC(=O)SCCNC(=O)CCNC(=O)[C@H](O)C(C)(C)COP(=O)(O)OP(=O)(O)OC[C@H]1O[C@@H](n2cnc3c(N)ncnc32)[C@H](O)[C@@H]1OP(=O)(O)O [C18:1-CoA, oleoyl (C18:1)-CoA]	1.1	540
CCCCCCCCCCCCCCCCCCCCCCCCCC(=O)SCCNC(=O)CCNC(=O)[C@H](O)C(C)(C)COP(=O)(O)OP(=O)(O)OC[C@H]1O[C@@H](n2cnc3c(N)ncnc32)[C@H](O)[C@@H]1OP(=O)(O)O [C26:0-CoA, hexacosanoyl (C26:0)-CoA]	2.4	306

— US7579012B2, “Targeting of triacylglycerol synthase gene for tuberculosis treatment” (University of Central Florida Research Foundation, Inc., priority 2005, dated 2009)
